Drawing on patent publication US20080293771A1, “AZACYCLYLBENZAMIDE DERIVATIVES AS HISTAMINE-3 ANTAGONISTS” (Wyeth, priority 2007, published 2008), this text covers Ki for 34 compounds.

Some results are limits rather than exact numbers.

In general, Ki refers to the dissociation constant of the complex between target and ligand, obtained from inhibition or displacement.

This test addresses T1, Human Histamine H3 Receptor (Homo sapiens, UniProt Q9Y5N1).
T1 construct: expressed in transfected cells; host or cells: HEK293T (stably transfected; membrane preparation)
The test can be described thus: Methyl histamine binding in Human Histamine H3 Receptor Cell Line. Conditions: read-out: hH3 Binding Ki. The protocol:
Evaluation of Methyl histamine binding in Human Histamine H3 Receptor Cell Line
The affinity of test compounds for the histamine 3 (H3) receptor is evaluated in the following manner. […] Cells are scraped from the plate, transferred to centrifuge tubes, washed one time in PBS by centrifugation in a Sorvall RT7 Plus centrifuge (2000 rpm 10 minutes, 4° C.). The resulting pellets are stored at −80° C. until ready for use. Cells are re-suspended in buffer (50 mM Tris pH=7.5) and placed in a Dounce homogenizer, douncing ten times to homogenize cells. The homogenate is spun down by centrifugation (Sorvall RT7 Plus, 1800 rpm 10 minutes, 4° C.). The supernatant is placed in a Corex tube and spun down by centrifugation (Sorvall RC 5c Plus, 17,000 rpm 20 minutes, 4° C.). The pellet is resuspended in buffer (50 mM Tris, pH 7.5). Protein concentration (ug/ul) is determined using the Micro-BCA Protein Determination. The binding assay is set up in a 96 well microtiter plate in a total volume of 250 uL. Non-specific binding is determined in the presence of 10 uM clobenpropit. The final radioligand concentration is 1 nM. The test compound is serially diluted using the Beckman Biomek2000 to a final approximate range of 100 uM to 100 pM. Membranes are suspended in buffer, homogenized in 2 bursts of ten seconds using a Vitris mechanical homogenizer set at power setting 5. Ten μg of membranes are added to each well. Following a one hour incubation at 30° C., the reaction is terminated by the addition of ice cold buffer and rapid filtration with a Packard Filtermate Harvester through a GF/B filter pre-soaked with 1% PEI for one hour. The plate is dried for one hour at 37° C. and 60 μL Microscint Scintillant is added to each well. The CPM per well is measured on a Packard Top Count NXT. Ki values are determined in nM. […] CPM values are expressed as % specific binding and plotted vs compound concentration. A curve is fitted using a four-parameter logistic fit and the IC50 value is determined. The Ki is calculated from this using the Cheng-Prusoff equation: […]=IC50/1+(L/Kd) where L=concentration of free radioligand used in the assay, and Kd is the dissociation constant of the radioligand for the receptor. L is determined for each experiment by counting an aliquot of the diluted radioligand (corresponding to that added to each well) and the Kd has previously been determined under identical conditions for this cell line/radioligand.

T1 sequence (Q9Y5N1 whole entry): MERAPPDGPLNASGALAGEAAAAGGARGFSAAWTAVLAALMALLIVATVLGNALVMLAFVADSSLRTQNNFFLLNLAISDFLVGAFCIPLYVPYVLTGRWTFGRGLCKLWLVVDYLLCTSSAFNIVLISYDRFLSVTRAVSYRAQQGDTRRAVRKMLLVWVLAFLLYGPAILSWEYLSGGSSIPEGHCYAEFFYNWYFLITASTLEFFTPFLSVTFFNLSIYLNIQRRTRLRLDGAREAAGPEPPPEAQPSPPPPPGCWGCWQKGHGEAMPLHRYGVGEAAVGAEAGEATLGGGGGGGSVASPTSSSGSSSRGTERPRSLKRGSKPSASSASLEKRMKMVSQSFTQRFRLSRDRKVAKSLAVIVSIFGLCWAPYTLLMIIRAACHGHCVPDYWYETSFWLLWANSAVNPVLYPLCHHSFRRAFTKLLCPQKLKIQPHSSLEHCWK

As for `CN(C(=O)c1ccc(Cn2cnc3ccccc32)cc1)C1CCN(C2CCCC2)CC1` [Example 51, 4-(1H-benzimidazol-1-ylmethyl)-N-(1-cyclopentylpiperidin-4-yl)-N-methylbenzamide], the Ki was more than 100 nM.

`Cc1nc2cc(C#N)ccc2n1-c1ccc(C(=O)N(C)[C@@H]2CCN(C(C)C)C2)cc1` [Example 54, 4-(5-cyano-2-methyl-1H-benzimidazol-1-yl)-N-[(3R)-1-isopropylpyrrolidin-3-yl]-N-methylbenzamide]: the Ki is not above 10 nM.

Turning to `Cc1nc2cc(C#N)ccc2n1-c1ccc(C(=O)N(C)[C@@H]2CCN(C3CCC3)C2)cc1` [Example 55, 4-(5-cyano-2-methyl-1H-benzimidazol-1-yl)-N-[(3R)-1-cyclobutylpyrrolidin-3-yl]-N-methylbenzamide], the Ki was not above 10 nM.

For `Cc1nc2cc(C#N)ccc2n1-c1ccc(C(=O)N(C)[C@@H]2CCN(C3CCCC3)C2)cc1` [Example 56, 4-(5-cyano-2-methyl-1H-benzimidazol-1-yl)-N-[(3R)-1-cyclopentylpyrrolidin-3-yl]-N-methylbenzamide], the Ki fell in the range of 10.1 to 50 nM.

For the compound `CN(C(=O)c1ccc(-n2cc3ccccc3n2)cc1)[C@@H]1CCNC1` [Example 60a, (R)-4-Indazol-2-yl-N-methyl-N-pyrrolidin-3-yl-benzamide], the Ki is more than 100 nM.

As to `CN(C(=O)c1ccc(-n2ncc3ccccc32)cc1)[C@@H]1CCNC1` [Example 60b, (R)-4-Indazol-1-yl-N-methyl-N-pyrrolidin-3-yl-benzamide], the Ki was more than 100 nM.

Take `CC(C)N1CC[C@@H](N(C)C(=O)c2ccc(-n3cc4ccccc4n3)cc2)C1` [Example 61, 4-(2H-indazol-2-yl)-N-[(3R)-1-isopropylpyrrolidin-3-yl]-N-methylbenzamide]: the Ki is not above 10 nM.

For the compound `CN(C(=O)c1ccc(-n2cc3ccccc3n2)cc1)[C@@H]1CCN(C2CCC2)C1` [Example 62, N-[(3R)-1-cyclobutylpyrrolidin-3-yl]-4-(2H-indazol-2-yl)-N-methylbenzamide], the inhibition constant Ki is not above 10 nM.

Consider `CN(C(=O)c1ccc(-n2cc3ccccc3n2)cc1)[C@@H]1CCN(C2CCCC2)C1` [Example 63, N-[(3R)-1-cyclopentylpyrrolidin-3-yl]-4-(2H-indazol-2-yl)-N-methylbenzamide], for which the Ki was not above 10 nM.

Turning to `CC(C)N1CC[C@@H](N(C)C(=O)c2ccc(-n3ncc4ccccc43)cc2)C1` [Example 64, 4-(1H-indazol-1-yl)-N-[(3R)-1-isopropylpyrrolidin-3-yl]-N-methylbenzamide], the Ki was not above 10 nM.

With `CN(C(=O)c1ccc(-n2ncc3ccccc32)cc1)[C@@H]1CCN(C2CCC2)C1` [Example 65, N-[(3R)-1-cyclobutylpyrrolidin-3-yl]-4-(1H-indazol-1-yl)-N-methylbenzamide], the Ki is not above 10 nM.

For the compound `CN(C(=O)c1ccc(-n2ncc3ccccc32)cc1)[C@@H]1CCN(C2CCCC2)C1` [Example 66, N-[(3R)-1-cyclopentylpyrrolidin-3-yl]-4-(1H-indazol-1-yl)-N-methylbenzamide], the inhibitory constant (Ki) was 10.1 to 50 nM.

Consider `CN(C(=O)c1ccc(-n2ncc3ccccc32)cc1)C1CCNCC1` [Example 68], for which the Ki was more than 100 nM.

As for `CC(C)N1CCC(N(C)C(=O)c2ccc(-n3cc4ccccc4n3)cc2)CC1` [Example 69, 4-(2H-indazol-2-yl)-N-(1-isopropylpiperidin-4-yl)-N-methylbenzamide], the inhibition constant (Ki) was in the range of 50.1 to 100 nM.

On to `CN(C(=O)c1ccc(-n2cc3ccccc3n2)cc1)C1CCN(C2CCC2)CC1` [Example 70, N-(1-cyclobutylpiperidin-4-yl)-4-(2H-indazol-2-yl)-N-methylbenzamide], for which the inhibition constant (Ki) was more than 100 nM.

On to `CN(C(=O)c1ccc(-n2cc3ccccc3n2)cc1)C1CCN(C2CCCC2)CC1` [Example 71, N-(1-cyclopentylpiperidin-4-yl)-4-(2H-indazol-2-yl)-N-methylbenzamide], for which the Ki is more than 100 nM.

As for `CC(C)N1CCC(N(C)C(=O)c2ccc(-n3ncc4ccccc43)cc2)CC1` [Example 72, 4-(1H-indazol-1-yl)-N-(1-isopropylpiperidin-4-yl)-N-methylbenzamide], the Ki lay in the range of 50.1 to 100 nM.

On to `CN(C(=O)c1ccc(-n2ncc3ccccc32)cc1)C1CCN(C2CCC2)CC1` [Example 73, N-(1-cyclobutylpiperidin-4-yl)-4-(1H-indazol-1-yl)-N-methylbenzamide], for which the inhibition constant Ki was more than 100 nM.

On to `CN(C(=O)c1ccc(-n2ncc3ccccc32)cc1)C1CCN(C2CCCC2)CC1` [Example 74, N-(1-cyclopentylpiperidin-4-yl)-4-(1H-indazol-1-yl)-N-methylbenzamide], for which the Ki was more than 100 nM.

As to `CN(C(=O)c1ccc(Cn2ncc3ccccc32)cc1)[C@@H]1CCNC1` [Example 75, (R)-4-((1H-indazol-1-yl)methyl)-N-methyl-N-(pyrrolidin-3yl)benzamide], the Ki is more than 100 nM.

As to `CC(C)N1CC[C@@H](N(C)C(=O)c2ccc(Cn3ncc4ccccc43)cc2)C1` [Example 76, 4-(1H-indazol-1-ylmethyl)-N-[(3R)-1-isopropylpyrrolidin-3-yl]-N-methylbenzamide], the Ki lay within 50.1 to 100 nM.

`CN(C(=O)c1ccc(Cn2ncc3ccccc32)cc1)[C@@H]1CCN(C2CCC2)C1` [Example 77, N-[(3R)-1-cyclobutylpyrrolidin-3-yl]-4-(1H-indazol-1-ylmethyl)-N-methylbenzamide]: the Ki lay within 10.1 to 50 nM.

Take `CN(C(=O)c1ccc(Cn2ncc3ccccc32)cc1)[C@@H]1CCN(C2CCCC2)C1` [Example 78, N-[(3R)-1-cyclopentylpyrrolidin-3-yl]-4-(1H-indazol-1-ylmethyl)-N-methylbenzamide]: the Ki was in the range of 50.1 to 100 nM.

For the compound `CC(C)N1CCC(N(C)C(=O)c2ccc(Cn3ncc4ccccc43)cc2)CC1` [Example 79, 4-(1H-indazol-1-ylmethyl)-N-(1-isopropylpiperidin-4-yl)-N-methylbenzamide], the Ki lay within 50.1 to 100 nM.

With `CN(C(=O)c1ccc(Cn2ncc3ccccc32)cc1)C1CCN(C2CCC2)CC1` [Example 80, N-(1-cyclobutylpiperidin-4-yl)-4-(1H-indazol-1-ylmethyl)-N-methylbenzamide], the Ki was more than 100 nM.

`CN(C(=O)c1ccc(Cn2ncc3ccccc32)cc1)C1CCN(C2CCCC2)CC1` [Example 81, N-(1-cyclopentylpiperidin-4-yl)-4-(1H-indazol-1-ylmethyl)-N-methylbenzamide]: the Ki was more than 100 nM.

As for `CC(C)N1CCC(N(C)C(=O)c2ccc(-n3cccn3)cc2)CC1` [Example 85, N-(1-isopropylpiperidin-4-yl)-N-methyl-4-(1H-pyrazol-1-yl)benzamide], the Ki is more than 100 nM.

`CN(C(=O)c1ccc(-n2cccn2)cc1)C1CCN(C2CCC2)CC1` [Example 86, N-(1-cyclobutylpiperidin-4-yl)-N-methyl-4-(1H-pyrazol-1-yl)benzamide]: the Ki is more than 100 nM.

In the case of `CN(C(=O)c1ccc(-n2cccn2)cc1)C1CCN(C2CCCC2)CC1` [Example 87, N-(1-cyclopentylpiperidin-4-yl)-N-methyl-4-(1H-pyrazol-1-yl)benzamide], the Ki is more than 100 nM.

Consider `CC(C)N1CCC(N(C)C(=O)c2ccc(Cn3cccn3)cc2)CC1` [Example 91, N-methyl-N-[1-(1-methylethyl)piperidin-4-yl]-4-(1H-pyrazol-1-ylmethyl)benzamide], for which the Ki is more than 100 nM.

As for `CN(C(=O)c1ccc(Cn2cccn2)cc1)C1CCN(C2CCC2)CC1` [Example 92, N-(1-cyclobutylpiperidin-4-yl)-N-methyl-4-(1H-pyrazol-1-ylmethyl)benzamide], the Ki is more than 100 nM.

`CN(C(=O)c1ccc(Cn2cccn2)cc1)C1CCN(C2CCCC2)CC1` [Example 93, N-(1-cyclopentylpiperidin-4-yl)-N-methyl-4-(1H-pyrazol-1-ylmethyl)benzamide]: the Ki is more than 100 nM.

`Cc1nc2ccccc2n1-c1ccc(C(=O)N(C)[C@@H]2CCN(C(C)C)C2)cc1F` [Example 103, 3-fluoro-N-methyl-4-(2-methyl-1H-benzimidazol-1-yl)-N-[(3R)-1-(1-methylethyl)pyrrolidin-3-yl]benzamide]: the Ki lay in the range of 10.1 to 50 nM.

Turning to `Cc1nc2ccccc2n1-c1ccc(C(=O)N(C)[C@@H]2CCN(C3CCC3)C2)cc1F` [Example 104, N-[(3R)-1-cyclobutylpyrrolidin-3-yl]-3-fluoro-N-methyl-4-(2-methyl-1H-benzimidazol-1-yl)benzamide], the Ki lay in the range of 10.1 to 50 nM.
